Experimental data from BindingDB's records for doi:10.1074/jbc.M112.380782 (French Alternative Energies and Atomic Energy Commission, 2012).

Key:
Assay in all cases: Enzyme Assay
[1] = target: 72 kDa type IV collagenase (Homo sapiens, UniProt P08253); conditions: pH 6.8; 25 °C
[2] = target: T1, A disintegrin and metalloproteinase with thrombospondin motifs 4 (Homo sapiens, UniProt O75173); conditions: pH 6.8; 25 °C
T1 sequence (O75173 whole entry): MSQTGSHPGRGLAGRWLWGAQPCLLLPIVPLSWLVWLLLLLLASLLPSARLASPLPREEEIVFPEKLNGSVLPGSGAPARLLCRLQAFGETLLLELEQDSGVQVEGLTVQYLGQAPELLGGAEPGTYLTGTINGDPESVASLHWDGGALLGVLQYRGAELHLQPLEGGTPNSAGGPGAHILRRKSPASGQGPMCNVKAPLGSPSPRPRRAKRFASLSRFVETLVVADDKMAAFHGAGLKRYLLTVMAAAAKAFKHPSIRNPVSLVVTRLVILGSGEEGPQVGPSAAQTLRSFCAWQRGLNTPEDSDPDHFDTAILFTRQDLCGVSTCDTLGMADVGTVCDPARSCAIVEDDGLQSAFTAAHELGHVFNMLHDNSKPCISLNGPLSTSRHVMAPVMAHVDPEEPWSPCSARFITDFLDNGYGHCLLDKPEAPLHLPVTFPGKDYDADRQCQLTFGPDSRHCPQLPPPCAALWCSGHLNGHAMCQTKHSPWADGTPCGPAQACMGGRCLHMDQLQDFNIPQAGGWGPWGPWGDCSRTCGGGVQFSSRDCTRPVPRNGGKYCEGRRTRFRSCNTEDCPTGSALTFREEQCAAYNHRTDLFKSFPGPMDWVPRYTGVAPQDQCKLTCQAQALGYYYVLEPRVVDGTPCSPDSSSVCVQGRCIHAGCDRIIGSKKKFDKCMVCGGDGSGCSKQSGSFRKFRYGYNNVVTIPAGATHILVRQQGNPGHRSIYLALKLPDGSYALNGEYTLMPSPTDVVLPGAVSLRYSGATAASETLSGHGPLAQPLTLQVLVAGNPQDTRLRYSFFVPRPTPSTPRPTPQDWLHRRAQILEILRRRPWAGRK

[3] = target: T2, A disintegrin and metalloproteinase with thrombospondin motifs 5 (Homo sapiens, UniProt Q9UNA0); conditions: pH 6.8; 37 °C
T2 sequence (Q9UNA0 whole entry): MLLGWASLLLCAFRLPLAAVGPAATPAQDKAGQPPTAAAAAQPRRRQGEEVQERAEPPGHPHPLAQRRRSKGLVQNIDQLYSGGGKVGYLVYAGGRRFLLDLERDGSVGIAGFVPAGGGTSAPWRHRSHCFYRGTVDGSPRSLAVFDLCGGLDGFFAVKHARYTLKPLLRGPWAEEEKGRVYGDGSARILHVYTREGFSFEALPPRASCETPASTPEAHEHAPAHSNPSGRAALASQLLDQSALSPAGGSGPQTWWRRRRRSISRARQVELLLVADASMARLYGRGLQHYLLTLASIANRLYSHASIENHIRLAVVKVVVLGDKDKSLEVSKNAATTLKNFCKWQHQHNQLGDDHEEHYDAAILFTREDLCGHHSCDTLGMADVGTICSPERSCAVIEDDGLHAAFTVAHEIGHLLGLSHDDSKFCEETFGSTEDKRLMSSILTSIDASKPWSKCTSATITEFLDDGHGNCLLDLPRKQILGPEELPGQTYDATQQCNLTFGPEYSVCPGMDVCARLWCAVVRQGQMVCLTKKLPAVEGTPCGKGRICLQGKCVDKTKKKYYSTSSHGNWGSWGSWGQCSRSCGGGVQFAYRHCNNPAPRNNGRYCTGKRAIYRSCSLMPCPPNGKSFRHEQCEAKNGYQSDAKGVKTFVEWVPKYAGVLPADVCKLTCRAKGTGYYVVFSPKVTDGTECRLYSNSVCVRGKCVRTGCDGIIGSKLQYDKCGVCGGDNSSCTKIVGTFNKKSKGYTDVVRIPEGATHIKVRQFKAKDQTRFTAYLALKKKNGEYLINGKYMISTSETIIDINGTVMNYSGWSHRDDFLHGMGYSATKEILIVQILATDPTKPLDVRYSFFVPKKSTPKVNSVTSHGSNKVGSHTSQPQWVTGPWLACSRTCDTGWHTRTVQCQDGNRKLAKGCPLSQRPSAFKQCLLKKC

[4] = target: Collagenase 3 (Homo sapiens, UniProt P45452); conditions: pH 6.8; 25 °C
[5] = target: Macrophage metalloelastase (Homo sapiens, UniProt P39900); conditions: pH 6.8; 25 °C
[6] = target: Matrix metalloproteinase-14 (Homo sapiens, UniProt P50281); conditions: pH 6.8; 25 °C
[7] = target: Matrix metalloproteinase-9 (Homo sapiens, UniProt P14780); conditions: pH 6.8; 25 °C
[8] = target: Neutrophil collagenase (Homo sapiens, UniProt P22894); conditions: pH 6.8; 25 °C
[9] = target: Stromelysin-1 (Homo sapiens, UniProt P08254); conditions: pH 6.8; 25 °C
[10] = target: Stromelysin-2 (Homo sapiens, UniProt P09238); conditions: pH 6.8; 25 °C
[11] = target: T3, Interstitial collagenase (Homo sapiens, UniProt P03956); conditions: pH 6.8; 25 °C
T3 sequence (P03956 whole entry): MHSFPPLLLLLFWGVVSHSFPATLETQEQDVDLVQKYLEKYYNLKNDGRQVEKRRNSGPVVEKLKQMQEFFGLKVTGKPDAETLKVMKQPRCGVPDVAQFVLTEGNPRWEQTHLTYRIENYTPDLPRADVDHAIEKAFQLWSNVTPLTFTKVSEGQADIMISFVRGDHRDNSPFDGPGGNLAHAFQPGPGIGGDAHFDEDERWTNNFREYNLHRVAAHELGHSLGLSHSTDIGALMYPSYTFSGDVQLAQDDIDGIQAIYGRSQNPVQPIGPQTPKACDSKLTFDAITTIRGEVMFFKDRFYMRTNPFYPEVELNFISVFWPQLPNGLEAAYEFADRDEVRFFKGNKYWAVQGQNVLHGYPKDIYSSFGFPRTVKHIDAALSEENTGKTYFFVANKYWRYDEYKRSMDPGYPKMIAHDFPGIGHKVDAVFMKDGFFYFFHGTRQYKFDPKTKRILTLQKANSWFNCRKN

[12] = target: T4, Matrilysin (Homo sapiens, UniProt P09237); conditions: pH 6.8; 25 °C
T4 sequence (P09237 whole entry): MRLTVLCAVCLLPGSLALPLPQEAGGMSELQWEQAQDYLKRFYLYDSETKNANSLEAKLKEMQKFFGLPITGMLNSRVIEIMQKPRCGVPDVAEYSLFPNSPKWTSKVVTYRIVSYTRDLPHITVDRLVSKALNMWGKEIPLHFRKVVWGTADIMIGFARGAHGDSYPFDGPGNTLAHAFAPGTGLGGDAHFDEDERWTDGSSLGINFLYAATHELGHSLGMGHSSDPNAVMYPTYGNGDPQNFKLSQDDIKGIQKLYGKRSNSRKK

Sequence of Matrix metalloproteinase-9 (P14780 whole entry): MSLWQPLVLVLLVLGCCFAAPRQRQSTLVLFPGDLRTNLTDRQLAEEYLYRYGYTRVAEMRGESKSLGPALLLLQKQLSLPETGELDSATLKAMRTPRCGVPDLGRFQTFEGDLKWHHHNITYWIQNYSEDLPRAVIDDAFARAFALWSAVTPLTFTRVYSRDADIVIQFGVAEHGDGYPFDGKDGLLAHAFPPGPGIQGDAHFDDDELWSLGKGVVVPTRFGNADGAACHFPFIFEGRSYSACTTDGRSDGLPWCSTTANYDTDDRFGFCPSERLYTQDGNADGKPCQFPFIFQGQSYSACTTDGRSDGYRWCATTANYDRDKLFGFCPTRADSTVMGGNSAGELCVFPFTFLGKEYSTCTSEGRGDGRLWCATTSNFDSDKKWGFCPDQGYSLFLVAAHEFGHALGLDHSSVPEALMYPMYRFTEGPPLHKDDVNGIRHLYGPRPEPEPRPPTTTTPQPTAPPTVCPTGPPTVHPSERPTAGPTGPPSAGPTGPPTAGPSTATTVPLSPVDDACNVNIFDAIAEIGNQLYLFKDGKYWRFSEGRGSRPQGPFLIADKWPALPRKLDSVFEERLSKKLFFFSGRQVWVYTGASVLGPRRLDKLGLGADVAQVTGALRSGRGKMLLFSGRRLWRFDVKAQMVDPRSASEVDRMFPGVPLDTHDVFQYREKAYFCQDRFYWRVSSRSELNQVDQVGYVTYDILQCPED
Sequence of Stromelysin-2 (P09238 whole entry): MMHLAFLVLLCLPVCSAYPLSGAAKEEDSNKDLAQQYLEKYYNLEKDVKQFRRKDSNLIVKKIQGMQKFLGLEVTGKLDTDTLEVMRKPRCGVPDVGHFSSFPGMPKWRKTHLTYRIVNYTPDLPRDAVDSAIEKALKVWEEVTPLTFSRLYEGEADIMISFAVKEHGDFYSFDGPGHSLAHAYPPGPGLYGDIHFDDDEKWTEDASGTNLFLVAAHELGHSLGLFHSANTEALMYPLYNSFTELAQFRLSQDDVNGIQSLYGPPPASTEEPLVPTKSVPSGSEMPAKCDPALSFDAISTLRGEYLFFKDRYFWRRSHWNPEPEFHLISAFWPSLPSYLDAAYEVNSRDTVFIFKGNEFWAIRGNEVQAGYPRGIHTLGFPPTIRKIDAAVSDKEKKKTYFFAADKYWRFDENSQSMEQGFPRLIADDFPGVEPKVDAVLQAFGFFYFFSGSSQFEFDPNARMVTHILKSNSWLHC
Sequence of Stromelysin-1 (P08254 whole entry): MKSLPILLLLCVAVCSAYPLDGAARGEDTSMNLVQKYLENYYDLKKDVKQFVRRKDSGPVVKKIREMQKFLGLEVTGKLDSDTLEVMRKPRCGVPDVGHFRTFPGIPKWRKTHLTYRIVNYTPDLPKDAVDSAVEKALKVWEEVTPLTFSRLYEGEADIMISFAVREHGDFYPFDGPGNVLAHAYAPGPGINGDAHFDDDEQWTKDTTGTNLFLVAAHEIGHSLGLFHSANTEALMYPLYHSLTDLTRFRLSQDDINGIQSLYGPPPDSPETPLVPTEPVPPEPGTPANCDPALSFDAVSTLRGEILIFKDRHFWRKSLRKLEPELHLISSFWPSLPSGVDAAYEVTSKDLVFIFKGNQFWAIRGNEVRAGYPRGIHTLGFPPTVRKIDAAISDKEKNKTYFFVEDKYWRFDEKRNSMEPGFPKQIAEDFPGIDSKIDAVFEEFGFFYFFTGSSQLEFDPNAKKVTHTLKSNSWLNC
Sequence of Macrophage metalloelastase (P39900 whole entry): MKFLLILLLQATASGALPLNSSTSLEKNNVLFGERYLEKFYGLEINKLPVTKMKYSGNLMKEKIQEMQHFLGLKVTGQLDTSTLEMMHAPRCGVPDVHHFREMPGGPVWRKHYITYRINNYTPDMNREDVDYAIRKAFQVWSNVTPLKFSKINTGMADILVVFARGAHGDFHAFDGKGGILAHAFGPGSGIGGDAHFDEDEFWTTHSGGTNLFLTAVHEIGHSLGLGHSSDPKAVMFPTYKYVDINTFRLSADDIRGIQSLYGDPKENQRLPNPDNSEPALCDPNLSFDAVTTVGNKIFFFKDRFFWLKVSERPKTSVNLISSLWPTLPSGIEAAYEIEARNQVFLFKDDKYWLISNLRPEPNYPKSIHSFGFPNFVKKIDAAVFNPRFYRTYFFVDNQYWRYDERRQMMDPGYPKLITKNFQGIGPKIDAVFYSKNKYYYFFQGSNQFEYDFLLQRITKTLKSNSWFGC
Sequence of Neutrophil collagenase (P22894 whole entry): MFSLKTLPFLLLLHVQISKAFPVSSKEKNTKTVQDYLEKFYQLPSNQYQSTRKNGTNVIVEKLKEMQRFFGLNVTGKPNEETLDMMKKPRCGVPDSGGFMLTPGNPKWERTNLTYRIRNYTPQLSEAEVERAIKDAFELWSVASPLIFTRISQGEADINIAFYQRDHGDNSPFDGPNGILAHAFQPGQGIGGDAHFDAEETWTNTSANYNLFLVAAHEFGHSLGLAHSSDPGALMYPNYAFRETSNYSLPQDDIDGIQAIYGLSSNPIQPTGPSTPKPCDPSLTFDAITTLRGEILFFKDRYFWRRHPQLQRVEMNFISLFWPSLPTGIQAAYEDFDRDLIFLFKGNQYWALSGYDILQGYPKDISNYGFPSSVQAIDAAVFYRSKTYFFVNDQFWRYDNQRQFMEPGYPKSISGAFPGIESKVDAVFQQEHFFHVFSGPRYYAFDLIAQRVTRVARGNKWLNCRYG
Sequence of 72 kDa type IV collagenase (P08253 whole entry): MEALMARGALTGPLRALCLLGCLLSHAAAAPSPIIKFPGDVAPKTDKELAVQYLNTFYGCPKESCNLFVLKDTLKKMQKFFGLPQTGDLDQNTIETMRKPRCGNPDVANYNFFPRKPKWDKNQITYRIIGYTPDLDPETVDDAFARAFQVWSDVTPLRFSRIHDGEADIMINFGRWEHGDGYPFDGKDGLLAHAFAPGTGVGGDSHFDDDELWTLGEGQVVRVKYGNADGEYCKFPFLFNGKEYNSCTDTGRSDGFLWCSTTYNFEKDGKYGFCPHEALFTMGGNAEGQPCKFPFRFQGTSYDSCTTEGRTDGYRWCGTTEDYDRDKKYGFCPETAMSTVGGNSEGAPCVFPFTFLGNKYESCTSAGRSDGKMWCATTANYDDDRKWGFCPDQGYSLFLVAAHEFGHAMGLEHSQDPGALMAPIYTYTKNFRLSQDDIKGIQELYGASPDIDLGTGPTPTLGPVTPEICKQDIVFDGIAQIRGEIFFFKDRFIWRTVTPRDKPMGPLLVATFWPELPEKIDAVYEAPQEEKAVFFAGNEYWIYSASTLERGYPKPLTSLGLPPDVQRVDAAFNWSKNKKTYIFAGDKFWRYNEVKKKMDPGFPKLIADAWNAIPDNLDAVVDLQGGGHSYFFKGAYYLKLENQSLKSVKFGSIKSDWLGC

Ki [1]	Ki [2]	Ki [3]	Ki [4]	Ki [5]	Ki [6]	Ki [7]	Ki [8]	Ki [9]	Ki [10]	IC50 [4]	IC50 [1]	IC50 [11]	IC50 [12]	IC50 [6]	IC50 [7]	IC50 [8]	IC50 [9]	SMILES	Ki [11]
57 nM	> 10 µM	3.22 µM	338 nM	3.3 nM	2350 nM	91 nM	5.3 nM	2160 nM	390 nM									Cc1ccc(-c2ccc(CCC(=O)N[C@@H](CCC(=O)O)C(N)=O)cc2)s1 [Inhibitor, 17]	
127 nM		0.874 µM	501 nM	2.5 nM	968 nM	2230 nM		5820 nM	299 nM									NC(=O)[C@H](CCC(=O)O)NC(=O)c1ccc(-c2cc(-c3ccccc3)cs2)cc1 [Inhibitor, 16]	
583 nM		0.585 µM		2.9 nM	> 10000 nM	1330 nM		329 nM	352 nM									NC(=O)[C@H](CCC(=O)O)NC(=O)CCc1ccc(-c2ccc(-c3ccccc3)s2)cc1 [Inhibitor, 19]	
		4.2 µM		3.6 nM	3010 nM	2630 nM		3000 nM	3110 nM									NC(=O)[C@H](CCC(=O)O)NC(=O)CCc1ccc(-c2cc(-c3ccccc3)cs2)cc1 [US8691753, 105]	
47 nM		5.8 µM	18 nM	3.3 nM	1050 nM	2190 nM	205 nM	103 nM	54 nM									NC(=O)[C@H](CCC(=O)O)NC(=O)CCc1ccc(-c2ccc(-c3ccccc3)cc2)cc1 [Inhibitor, 18]	
										33.4 nM								O=C(NCc1ccc(F)c(Cl)c1)c1cc(C(=O)NCC23CCC(C(=O)O)(CC2)CC3)n2nccc2n1 [MMP Inhibitor, 6]	
										46 nM	66 nM	> 2000 nM	> 2000 nM	> 2000 nM	> 300 nM	37 nM	> 300 nM	CC(C)C(NS(=O)(=O)c1ccc2c(c1)oc1ccc(N3CCOC3=O)cc12)C(=O)O (stereo unspecified) [MMP Inhibitor, 2]	

SMILES	Ki [1]	Ki [2]	Ki [3]	Ki [4]	Ki [5]	Ki [6]	Ki [7]	Ki [8]	Ki [9]	Ki [10]	IC50 [4]	IC50 [1]	IC50 [11]	IC50 [12]	IC50 [6]	IC50 [7]	IC50 [8]	IC50 [9]	Ki [11]
NC(=O)[C@@H](CCC(=O)O)NC(=O)[C@H](CCC(=O)O)NC(=O)C(Cc1cc(-c2ccc(-c3cccc(Cl)c3)cc2)no1)CP(=O)(O)c1ccc(Br)cc1 (stereo partly specified) [RXP470, Compound 4]	> 100 nM				0.2 nM	> 100 nM	> 100 nM	> 100 nM		8 nM									> 1000 nM
